Among the data in PubChem BioAssay AID2387 (Broad Institute, 2010) are EC50 values, retold here.

The source made the active and inactive calls.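 How the source made its calls: active means fitted EC50 no more than tenfold above the highest tested concentration; inconclusive means flat fit with 30 to 70% signal loss, or poor fit; inactive means the rest.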

Broadly, the EC50 is the concentration giving half of the maximal effect.

The assay deals with Candida albicans CaCi-2 growth (no fluconazole), Alamar Blue. Description: intrinsic antifungal toxicity in Candida, azole-free – CaCi-2 strain, Alamar Blue fluorescence, counter-screen for fluconazole resistance reversal project, dose response (AID 2387). The conditions noted are these: C. albicans CaCi-2 (fluconazole-resistant clinical isolate) growth without fluconazole, 48 h. In general terms: Alamar Blue is a resazurin reagent that responds to reducing activity.
As for `Cc1c(OCC(=O)NCC(O)c2ccccc2)ccc2c(-c3ccccc3)cc(=O)oc12` (stereo not drawn), the EC50 is > 16 µM (inactive).

Take `N/C(Cc1ccccc1)=N\OC(=O)c1cccc2ccccc12`: the EC50 was > 15 µM (inactive).

On to `O=C(Oc1c(CN2CCOCC2)cc(Cl)c2cccnc12)c1ccc(F)cc1`, for which the EC50 was > 16 µM (inactive).

Take `O=C(Nc1nnc(C2COc3ccccc3O2)o1)c1ccc(F)cc1` (stereo not drawn): the EC50 was > 15 µM (inactive).

As for `CN(C)S(=O)(=O)Oc1cccc(C(=O)Nc2ccc(Cl)c(Cl)c2)c1`, the EC50 was > 15 µM (inactive).

Consider `CCn1c(Sc2nc(C)nc3scc(-c4cccs4)c23)n[nH]c1=O`, for which the EC50 was > 16 µM (inactive).

`O=C(Cc1ccc(Cl)cc1)NNC(=S)NC(=O)c1cccs1`: the EC50 is > 16 µM (inactive).

Consider `Oc1cccc(C(Nc2nccs2)c2ccc3cccnc3c2O)c1` (stereo not drawn), for which the EC50 was > 16 µM (inactive).

As for `O=C(NNC1=C(C(=O)C(F)(F)F)CCC1)c1ccc(Br)cc1`, the EC50 was > 15 µM (inactive).

Regarding `c1ccc2c(c1)OCC(CNc1ncnc3sccc13)O2` (stereo not drawn), the EC50 is > 15 µM (inactive).

Consider `CCCC(=O)NC(c1ccc(C(C)C)cc1)c1ccc2cccnc2c1O` (stereo not drawn), for which the EC50 is 11.1 µM.

As for `Cc1cc(C)cc(OCC(=O)NNC(=S)NC(=O)C2CC2)c1`, the EC50 was > 15 µM (inactive).

For `Cc1ccc(S(=O)(=O)N(C)c2ccc(OCC(=O)Nc3nnc(C4CC4)s3)cc2)cc1`, the EC50 is > 15 µM (inactive).

`Cc1ccc(NC(=O)c2noc(C(C)C)c2[N+](=O)[O-])cc1`: the EC50 is > 16 µM (inactive).

Regarding `CC(=O)NC(c1cccs1)c1cc([N+](=O)[O-])c2cccnc2c1O` (stereo not drawn), the EC50 is > 15 µM (inactive).

In the case of `Clc1ccccc1C(c1ccccc1)(c1ccccc1)n1ccnc1`, the EC50 is 1.58 µM.

For `O=C(CCc1ccccc1)NNC(=S)NC(=O)c1ccccc1`, the EC50 was > 15 µM (inactive).

For the compound `CC(=O)NC1CCCN(O)C(=O)/C=C(\C)CCOC(=O)C(NC(C)=O)CCCN(O)C(=O)/C=C(\C)CCOC(=O)C(NC(C)=O)CCCN(O)C(=O)/C=C(\C)CCOC1=O` (stereo not drawn), the EC50 was 2.05 µM.

`Cc1nn(-c2ccccc2)c(Cl)c1/C=C/C(=O)c1ccc(O)cc1`: the EC50 was > 16 µM (inactive).

On to `CCCC(=O)NC(c1ccc(C)cc1)c1ccc2cccnc2c1O` (stereo not drawn), for which the EC50 was > 15 µM (inactive).

As to `Cc1ccc(C(=O)Nc2cccc(-c3cn4ccccc4n3)c2)cc1`, the EC50 is > 16 µM (inactive).

`CCCC(=O)NC(c1ccc(OC)cc1)c1ccc2cccnc2c1O` (stereo not drawn): the EC50 was > 16 µM (inactive).

For the compound `O=[N+]([O-])c1nn(-c2ccc(Cl)cc2)n(O)c1=NCc1cccnc1`, the EC50 is > 15 µM (inactive).

For the compound `Cc1cccc(C(=O)NNC2=C(C(=O)C(F)(F)F)CCC2)c1O`, the EC50 is > 16 µM (inactive).

As for `CCN(Cc1ccccc1)S(=O)(=O)c1ccc(C(=O)Nc2nnc(-c3ccccc3OC)o2)cc1`, the EC50 is > 15 µM (inactive).

For `CCCC(=O)NC(c1cccs1)c1cc(Cl)c2cccnc2c1O` (stereo not drawn), the EC50 was 12 µM.

`CCN1CCN(C(c2cccnc2)c2cc(Cl)c3cccnc3c2O)CC1` (stereo not drawn): the EC50 was 15.6 µM.

For `COc1cccc(N=Nc2ccc(O)c3ncccc23)c1`, the EC50 was 1.26 µM.

Take `Nc1nonc1-n1nnc(C(=O)N/N=C/c2cc(Cl)ccc2O)c1CN1CCCCCC1`: the EC50 is > 15 µM (inactive).

For `COc1ccc(-c2nnc(NC(=O)c3ccc(S(=O)(=O)N4CCCc5ccccc54)cc3)o2)cc1`, the EC50 is 13.3 µM.

Consider `NC(=O)c1c(NC(=O)c2ccco2)sc2c1CCC2`, for which the EC50 is > 15 µM (inactive).

On to `COc1cccc(-c2nc(NC(C)C)c3ccccc3n2)c1O`, for which the EC50 is > 16 µM (inactive).

Take `C/C(=N\NC(=O)c1cc2ccccc2cc1O)c1ccccn1`: the EC50 was 9.98 µM.

On to `CC(=O)N(O)CCCCCNC(=O)CCC(=O)N(O)CCCCCNC(=O)CCC(=O)N(O)CCCCCN`, for which the EC50 was > 15 µM (inactive).

Consider `Cc1cc(C)c(-c2cc(NC(=O)COC(=O)c3ccc(C#N)cc3)n(-c3ccccc3)n2)cc1C`, for which the EC50 was > 16 µM (inactive).

As to `Clc1ccc2c(c1)C(c1cccs1)=NNC(c1cccnc1)=N2`, the EC50 is > 15 µM (inactive).

In the case of `O=[N+]([O-])c1c(C(Cl)Cl)nn(-c2ccc(Cl)cc2)c1N1CCCCC1`, the EC50 was > 16 µM (inactive).

Regarding `CCOc1ccccc1NC(=O)C(=O)N/N=C/c1cc(Br)ccc1O`, the EC50 is > 16 µM (inactive).

For the compound `CN(C)c1cc(N/N=C/c2ccc(Cl)cc2)nc(N(C)C)n1`, the EC50 was > 16 µM (inactive).

Turning to `Cn1cc(C(c2ccccn2)c2cn(C)c3ccccc23)c2ccccc21`, the EC50 was > 15 µM (inactive).

Consider `Cc1cc(NC(c2ccc(Cl)cc2)c2ccc3cccnc3c2O)no1` (stereo not drawn), for which the EC50 was 3.53 µM.

As for `Cc1ccnc(Sc2ccc([N+](=O)[O-])cc2[N+](=O)[O-])n1`, the EC50 was > 15 µM (inactive).

Turning to `O=C(c1ccc(Cn2c(=O)[nH]c3ccccc3c2=O)cc1)N1CCN(c2ccc(F)cc2)CC1`, the EC50 was > 15 µM (inactive).

`Cc1cc(O)ccc1NC(=S)NC(=O)c1cncc(Br)c1`: the EC50 was > 16 µM (inactive).

As to `c1ccc(CC2CCN(c3ncnc4sccc34)CC2)cc1`, the EC50 was > 16 µM (inactive).

Consider `O=[N+]([O-])c1cccc(-c2cc(-c3cc(Br)ccc3O)[nH]n2)c1`, for which the EC50 was > 15 µM (inactive).

In the case of `CCC(C)n1cnc2c(c1=O)c1nc3ccccc3nc1n2Cc1ccc(OC)cc1` (stereo not drawn), the EC50 was > 16 µM (inactive).

Turning to `Cc1ccccc1/C=C1\SC(=S)N(/N=C/c2cc([N+](=O)[O-])ccc2O)C1=O`, the EC50 was > 16 µM (inactive).

For `CCc1ccc2c(c1)/C(=C/C(=O)c1cccs1)C(=O)N2`, the EC50 was > 15 µM (inactive).

On to `O=C(Nc1nnc(-c2ccco2)o1)c1ccc(Cl)cc1`, for which the EC50 was > 15 µM (inactive).

As for `COc1ccc(-n2c(=O)c3c4c(sc3n3c(=S)[nH]nc23)CCCC4)cc1`, the EC50 is > 16 µM (inactive).

As for `CCN(CC)S(=O)(=O)c1ccc(N/N=C/c2ccc(O)cc2O)nc1`, the EC50 was > 16 µM (inactive).

With `Cc1cc(C(=O)N/N=C/c2cc(Cl)cc([N+](=O)[O-])c2O)c2ccccc2n1`, the EC50 is > 15 µM (inactive).

Take `C/C(=N\NC(=O)c1cc(C2CC2)nc2ccccc12)c1ccc(O)cc1O`: the EC50 was > 16 µM (inactive).

As for `CCOc1ccc(N=Nc2ccc(O)c3ncccc23)cc1`, the EC50 is 2.3 µM.

Consider `Cc1ccc(-n2nc(C)c3c(C)cc(=O)[nH]c32)cc1`, for which the EC50 is > 15 µM (inactive).

Regarding `Fc1cccc(-n2cc(-c3ccccc3)c3c(=S)nc[nH]c32)c1`, the EC50 was > 15 µM (inactive).

Consider `Cc1cc(Nc2ccccc2)nc(NCc2ccccc2)n1`, for which the EC50 was > 15 µM (inactive).

As for `CCN(CC)c1ccc2cc(S(=O)(=O)c3ccc(C)cc3)c(=O)oc2c1`, the EC50 is > 16 µM (inactive).

In the case of `Cc1ccc2ccc3ccc(C)nc3c2n1`, the EC50 was > 15 µM (inactive).

As to `COc1ccc(Cl)cc1C(Nc1cccnc1)c1ccc2cccnc2c1O` (stereo not drawn), the EC50 was 11.8 µM.

As to `O=C(CCS(=O)(=O)c1ccc(F)cc1)Nc1nc(-c2ccncc2)cs1`, the EC50 is > 15 µM (inactive).

`Cc1ccc(NC(=O)c2ccccc2NS(=O)(=O)c2ccc(Cl)s2)cc1`: the EC50 is > 15 µM (inactive).
